Data taken from patent US11510980B2, “Brartemicin analogues” (VICTORIA LINK LTD, priority 2017, dated 2022).

Legend:
[1] = biological target: T1, hMincle-Ig (Homo sapiens, UniProt Q9ULY5); experiment: In vitro Mincle binding assay (ELISA) with hMincle-Ig fusion protein; conditions: plate-coated ligand 0.1 nmol/well
T1 construct: using soluble Mincle-Ig fusion-proteins; made in house
T1 sequence (Q9ULY5 41-219 limits assumed): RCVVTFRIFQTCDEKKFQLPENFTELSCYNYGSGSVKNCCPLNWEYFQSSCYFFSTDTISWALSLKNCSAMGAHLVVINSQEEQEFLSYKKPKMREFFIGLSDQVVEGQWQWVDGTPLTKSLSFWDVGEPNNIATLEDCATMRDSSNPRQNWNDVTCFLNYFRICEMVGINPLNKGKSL
Method: (§1) Preparation of ligand-coated plates: Brartemicin analogues 9a-9i, TDM (Carbosynth, Sigma Aldrich), and TDB^14 were dissolved in CHCl3:MeOH (2:1, 1 mM), diluted in isopropanol ([…]) and added to 96-well plates (20 μL/well). The solvents were evaporated and the coated plates were used immediately.
In vitro Mincle binding assay: The preparation of mMincle- and hMincle-Ig fusion proteins have been previously described. Plate-coated glycolipids 9a-i, TDB, and TDM were incubated with hMincle-Ig, mMincle-Ig, or hIgG1-Fc (Ig) [3 μg/mL in binding buffer (20 mM Tris-HCl, 150 mM NaCl, 1 mM CaCl2), 2 mM MgCl2, pH 7.0)]. Detection of bound protein was achieved via incubation with anti-hIgG-HRP followed by the addition of a colorimetric substrate and measurement of OD at 450 nm. Background was accounted for by subtracting the hIgG1-Fc OD450 values from fusion protein OD450 values
The synthesised brartemicin analogues prepared in Example 1 were first tested for their ability to bind to both human and murine Mincle in an enzyme-linked immunosorbent assay (ELISA) using soluble Mincle-Ig fusion-proteins (FIG. 1a).

[2] = biological target: T2, mMincle+FcRγ (Mus musculus, UniProt Q9R0Q8); experiment: 2B4-NFAT-GFP reporter cells expressing mMincle+FcRγ; assay type: cell-based, murine; conditions: ligand-coated plates 0.01, 0.1 or 1 nmol/well, 18 hours
T2 construct: expressed in transfected cells; host or cells: 2B4-NFAT-GFP reporter cells
T2 sequence (Q9R0Q8 1-214): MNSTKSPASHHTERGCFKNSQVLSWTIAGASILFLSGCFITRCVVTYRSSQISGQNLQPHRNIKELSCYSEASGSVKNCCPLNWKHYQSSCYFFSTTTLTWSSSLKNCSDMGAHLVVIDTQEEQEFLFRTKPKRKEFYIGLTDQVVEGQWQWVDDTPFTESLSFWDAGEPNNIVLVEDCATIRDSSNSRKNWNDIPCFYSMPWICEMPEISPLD
T2 sequence (P20491 19-86 partner): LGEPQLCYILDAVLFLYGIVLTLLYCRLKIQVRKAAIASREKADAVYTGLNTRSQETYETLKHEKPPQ
Method: as §1
2B4-NFAT-GFP reporter cells: 2B4-NFAT-GFP reporter cells expressing mMincle+FcRγ, hMincle+FcRγ, or FcRγ only have been previously described. […] The reporter cells were harvested, stained with propidium iodide, and analysed for NFAT-GFP expression using flow cytometry (FACS Calibur).
To determine whether the Mincle binding observed in Example 1 correlated with cellular activation, nuclear factor of activated T cells (NFAT)-green fluorescent protein (GFP) reporter cells expressing mMincle or hMincle coupled to FcRγ were stimulated using plates coated with TDM, TDB, brartemicin (9i), or analogues 9a-9h.
Activation of the reporter cells was measured through the production of GFP, which was monitored by flow cytometry (FIGS. 1b and 3c).
With the compounds 43a-h in hand, the ability of these analogues to bind and signal through Mincle was assessed (FIG. 5). Accordingly, NFAT-GFP reporter cells expressing mMincle+FcRγ, hMincle+FcRγ, or FcRγ-only were stimulated with the 2G-brartemicin analogues 43a-h, TDB, iPrOH, or the p-OC18H37 substituted analogue, 9f. Reporter cell activation was measured by the production of NFAT-GFP, which was analysed by flow cytometry.

[3] = tested on: OT-II CD4+ T-cells co-cultured with GM-CSF BMDMs; experiment: BMDM / OT-II T-cell co-culture, OVA-specific IFN-γ and IL-17; assay type: cell-based, mice; conditions: 48 hours
Method: Cytokine analysis: IL-1β, IFN-γ, IL-6, TNF-α (BD Biosciences), IL-17, and MIP-2 (R&D) levels were determined via sandwich ELISA according to the manufacturer's instructions.
BMDC-OT-II T-cell co-cuture: A mixture of OT-II cells (1×10^5 cells/100 μL) and BMDCs (1×10^4 cells/100 μL) were stimulated with plate coated glycolipd (0.1 nmol/well) or iPrOH only (20 μL/well) and increasing concentrations of OVA (0, 0.1, or 1 μM). After 48 or 72 hours, the supernatant was collected and ELISA was employed to determine the levels of IFN-γ and IL-17.
To evaluate the potential of C18dMeBrar (9a) as a Th1/Th17 adjuvant, GM-CSF BMDMs and T-cells from OVA-specific OT-II TCR Tg mice were co-cultured on plates coated with TDM (0.01 nmol/well), TDB (0.01 nmol/well), or C18dMeBrar (9a, 0.01 nmol/well). The cells were stimulated with OVA (0, 0.1, and 1 μM), and after 48 hours, the supernatant was collected. Levels of the key Th1 cytokine IFN-γ, which is indicative of an enhanced host defence response, and the Th17 cytokine IL-17 were measured via ELISA (FIG. 3). […] Antigen-specific secretion of IFN-γ however, was not enhanced by treatment with 9a.

[4] = 0.01 nmol/well, OVA 0, 0.1 and 1 μM, ELISA

“6,6′-Di-O-(2-hydroxy-4-octabenzyloxybenzoyl)-α,α′-D-trehalose [9a]” was tested, and the “binding to hMincle-Ig (ELISA, OD at 450 nm)” value [1] was “good binding”, the “activation of mMincle NFAT-GFP reporter cells (GFP by flow cytometry)” value [2] was “strongly activated” and the “OVA-specific production of IL-17” value [3, 4] was “significantly augmented”. For the same substance, the “antigen-specific secretion of IFN-γ” value [3, 4] was “not enhanced” and the “adjuvant activity in vitro” value ([3]; 0.1 nmol/well, OVA323-339 peptide 0, 0.1 and 1 μM) was “displays adjuvant activity in vitro”.
